Assay results: ChEMBL document CHEMBL2390825, “A bioassay-driven discovery of an unexpected selenophene and its cytotoxicity” (Bioorg Med Chem Lett, 2013)
The source made the active and inactive calls. No cut-off for these calls is given here.

Legend:
[1] = test system: 518A2; assay: Induction of apoptosis in human 518A2 cells assessed as viable cells at 50 uM after 6 hrs by Annexin V FITC and propidium iodide staining by FACS analysis; assay type: functional; conditions: 518A2, 6 h, read-out: Activity
[2] = test system: 518A2; assay: Induction of apoptosis in human 518A2 cells assessed as total apoptotic cells at 50 uM after 6 hrs by Annexin V FITC and propidium iodide staining by FACS analysis; assay type: functional
[3] = test system: 518A2; assay: Induction of apoptosis in human 518A2 cells assessed as necrotic cells at 50 uM after 6 hrs by Annexin V FITC and propidium iodide staining by FACS analysis; assay type: functional
[4] = Cell cycle arrest in human 518A2 cells assessed as accumulation at S phase at 50 uM after 24 hrs by propidium iodide staining (reference value: 44.643%); assay type: functional, cell-based
[5] = Cell cycle arrest in human 518A2 cells assessed as accumulation at G2/M phase at 50 uM after 24 hrs by propidium iodide staining (reference value: 8.694%); assay type: functional, cell-based
[6] = Cell cycle arrest in human 518A2 cells assessed as accumulation at G1/G0 phase at 50 uM after 24 hrs by propidium iodide staining (reference value: 46.662%); assay type: functional, cell-based
[7] = test system: A549; assay: Cytotoxicity against human A549 cells after 96 hrs by SRB assay; assay type: functional, cell-based
[8] = test system: NIH3T3; assay: Cytotoxicity against mouse NIH/3T3 cells after 96 hrs by SRB assay; assay type: cell-based
[9] = test system: HT-29; assay: Cytotoxicity against human HT-29 cells after 96 hrs by SRB assay; assay type: functional, cell-based
[10] = test system: 8505C; assay: Cytotoxicity against human 8505C cells after 96 hrs by SRB assay; assay type: functional, cell-based
[11] = test system: A2780; assay: Cytotoxicity against human A2780 cells after 96 hrs by SRB assay; assay type: functional, cell-based
[12] = test system: MCF7; assay: Cytotoxicity against human MCF7 cells after 96 hrs by SRB assay; assay type: functional, cell-based
[13] = Cytotoxicity against human 518A2 cells after 96 hrs by SRB assay; assay type: functional, cell-based
[14] = test system: 518A2; assay: Induction of apoptosis in human 518A2 cells assessed as formation of DNA ladder at 50 uM after 24 hrs using AO/PI dye by fluorescence microscopic analysis; assay type: functional, cell-based
[15] = test system: 518A2; assay: Induction of apoptosis in human 518A2 cells assessed as viable cells at 30 uM after 6 hrs by Annexin V FITC and propidium iodide staining by FACS analysis; assay type: functional; conditions: 518A2, 6 h, read-out: Activity
[16] = test system: 518A2; assay: Induction of apoptosis in human 518A2 cells assessed as total apoptotic cells at 30 uM after 6 hrs by Annexin V FITC and propidium iodide staining by FACS analysis; assay type: functional
[17] = test system: 518A2; assay: Induction of apoptosis in human 518A2 cells assessed as necrotic cells at 30 uM after 6 hrs by Annexin V FITC and propidium iodide staining by FACS analysis; assay type: functional
[18] = Cell cycle arrest in human 518A2 cells assessed as accumulation at S phase at 30 uM after 24 hrs by propidium iodide staining (reference value: 44.643%); assay type: functional, cell-based
[19] = Cell cycle arrest in human 518A2 cells assessed as accumulation at G2/M phase at 30 uM after 24 hrs by propidium iodide staining (reference value: 8.694%); assay type: functional, cell-based
[20] = Cell cycle arrest in human 518A2 cells assessed as accumulation at G1/G0 phase at 30 uM after 24 hrs by propidium iodide staining (reference value: 46.662%); assay type: functional, cell-based

Row | Structure (SMILES) | viability at 50 µM [1] | Activity [2] | Activity [3] | Activity [4] | Activity [5] | Activity [6] | IC50 [7] | IC50 [8] | IC50 [9] | IC50 [10] | IC50 [11] | IC50 [12] | IC50 [13] | Activity [14] | viability at 30 µM [15] | Activity [16] | Activity [17] | Activity [18] | Activity [19] | Activity [20]
1 | COC(=O)[C@@]1(C)CC[C@]2(C)CC[C@]3(C)C(=CC(=O)[C@@H]4[C@@]5(C)CC[C@H](OC(C)=O)C(C)(C)[C@@H]5CC[C@]43C)[C@@H]2C1 | -19.3% | 16.8% | 2.5% | 4% | -7% | -2% | 42.6 µmol | 101.4 µmol | 77.4 µmol | 116.4 µmol | 40.5 µmol | 51.6 µmol | 26.1 µmol | – | – | – | – | – | – | –
2 | COC(=O)[C@@]1(C)CC[C@]2(C)CC[C@]3(C)c4c([se]c1c42)C(=O)[C@@H]1[C@@]2(C)CC[C@H](OC(C)=O)C(C)(C)[C@@H]2CC[C@]13C | -15% | 13.2% | 1.8% | 8% | -86% | 9% | 46.9 µmol | 46.1 µmol | 67.2 µmol | 42.2 µmol | 33.7 µmol | 45.6 µmol | 36.7 µmol | Active | – | – | – | – | – | –
3 | COC(=O)[C@@]1(C)CC[C@]2(C)CC[C@]3(C)[C@@]4(C(=O)OC1=C24)C(=O)[C@@H]1[C@@]2(C)CC[C@H](OC(C)=O)C(C)(C)[C@@H]2CC[C@]13C | – | – | – | – | – | – | 15 µmol | 38.1 µmol | 58.7 µmol | 73.2 µmol | 19.7 µmol | 33.5 µmol | 14.7 µmol | – | -4.3% | 3.9% | 0.5% | -8% | -15% | 11%
